Source: patent US10144733B2, “Naphthyridine derivatives as alpha v beta 6 integrin antagonists for the treatment of E.G. fibrotic diseases” (GlaxoSmithKline Intellectual Property Development Limited, priority 2014, dated 2018)

Legend:
Assay type in all cases: cell-based
[1] = target: T1, αvβ3 (Homo sapiens, UniProt P05106+P06756); assay: Cell Adhesion Assay K562-αvβ3 (LAP-b1); conditions: K562-αvβ3 cells, ligand LAP-b1, 2 mM MgCl2; read-out: mean affinity (pIC50) αvβ3 (converted)
T1 construct: expressed in transfected cells; host or cells: K562
T1 sequence (P06756 31-889 limits assumed): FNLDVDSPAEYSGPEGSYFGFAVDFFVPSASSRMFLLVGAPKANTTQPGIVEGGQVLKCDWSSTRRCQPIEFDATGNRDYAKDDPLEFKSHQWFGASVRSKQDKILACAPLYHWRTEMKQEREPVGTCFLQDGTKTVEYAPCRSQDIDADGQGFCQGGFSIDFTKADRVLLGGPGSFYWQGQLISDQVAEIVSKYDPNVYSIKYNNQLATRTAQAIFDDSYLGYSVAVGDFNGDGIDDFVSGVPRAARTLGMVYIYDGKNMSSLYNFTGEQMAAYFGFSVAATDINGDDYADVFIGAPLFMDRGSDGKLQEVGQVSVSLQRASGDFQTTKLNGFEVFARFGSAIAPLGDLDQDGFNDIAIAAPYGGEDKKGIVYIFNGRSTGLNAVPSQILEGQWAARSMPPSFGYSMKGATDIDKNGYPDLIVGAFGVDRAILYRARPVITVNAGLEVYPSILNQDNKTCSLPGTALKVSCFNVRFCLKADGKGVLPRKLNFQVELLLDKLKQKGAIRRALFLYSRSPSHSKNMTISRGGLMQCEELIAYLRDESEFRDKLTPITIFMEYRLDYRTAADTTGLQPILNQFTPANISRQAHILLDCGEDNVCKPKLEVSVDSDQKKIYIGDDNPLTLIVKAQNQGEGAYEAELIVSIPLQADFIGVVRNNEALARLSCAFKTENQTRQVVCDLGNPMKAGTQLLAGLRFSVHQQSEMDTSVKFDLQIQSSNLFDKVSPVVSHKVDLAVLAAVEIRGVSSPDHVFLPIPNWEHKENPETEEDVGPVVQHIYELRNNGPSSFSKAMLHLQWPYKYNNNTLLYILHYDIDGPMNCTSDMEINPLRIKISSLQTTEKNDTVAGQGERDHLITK
T1 sequence (P06756 891-1048 partner limits assumed): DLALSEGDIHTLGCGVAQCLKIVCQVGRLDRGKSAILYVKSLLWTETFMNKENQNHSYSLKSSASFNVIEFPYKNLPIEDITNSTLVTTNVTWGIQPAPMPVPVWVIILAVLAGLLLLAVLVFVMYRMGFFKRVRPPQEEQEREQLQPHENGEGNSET
T1 sequence (P05106 27-788): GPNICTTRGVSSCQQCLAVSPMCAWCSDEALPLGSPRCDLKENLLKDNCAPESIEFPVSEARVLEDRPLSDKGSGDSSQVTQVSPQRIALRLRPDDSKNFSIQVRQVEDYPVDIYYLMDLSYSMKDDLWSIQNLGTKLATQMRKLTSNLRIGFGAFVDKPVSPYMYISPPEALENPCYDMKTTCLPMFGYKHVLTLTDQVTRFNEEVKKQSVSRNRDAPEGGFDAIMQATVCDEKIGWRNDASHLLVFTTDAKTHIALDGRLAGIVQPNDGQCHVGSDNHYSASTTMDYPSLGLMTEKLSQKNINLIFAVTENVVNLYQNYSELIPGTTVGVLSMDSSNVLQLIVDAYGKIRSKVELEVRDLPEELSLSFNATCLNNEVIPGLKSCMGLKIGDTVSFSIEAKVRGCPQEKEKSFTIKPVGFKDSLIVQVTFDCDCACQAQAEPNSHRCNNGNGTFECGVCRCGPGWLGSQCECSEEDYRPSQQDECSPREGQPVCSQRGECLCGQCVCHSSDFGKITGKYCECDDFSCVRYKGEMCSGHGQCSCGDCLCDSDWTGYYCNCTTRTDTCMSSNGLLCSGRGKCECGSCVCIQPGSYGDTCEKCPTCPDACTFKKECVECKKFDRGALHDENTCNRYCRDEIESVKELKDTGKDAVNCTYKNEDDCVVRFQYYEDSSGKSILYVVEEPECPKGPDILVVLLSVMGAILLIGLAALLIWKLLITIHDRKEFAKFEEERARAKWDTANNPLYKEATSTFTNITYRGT
Procedure: (§1) The following cell lines were used, with ligands in brackets: K562-α5β1 (Fibronectin), K562-αvβ3 (LAP-b1), K562-αvβ5 (Vitronectin), K562-αvβ6 (LAP-b1), K562-αvβ8 (LAP-b1). The divalent cation used to facilitate adhesion was 2 mM MgCl2. Adhesion was quantified by cell labelling with the fluorescent dye BCECF-AM (Life Technologies), where cell suspensions at 3×10^6 cells/mL were incubated with […] of 30 mM BCECF-AM at 37° C. for 10 minutes, before dispensing into the assay plate. At the assay conclusion cells that adhered were lysed using 50 μL/well of 0.5% Triton X-100 in H2O to release fluorescence. Fluorescence intensity was detected using an Envision® plate reader (Perkin Elmer). For active antagonists in the assay, data were fitted to a 4 parameter logistic equation for IC50 determinations.

[2] = target: T2, αvβ8 (Homo sapiens, UniProt P06756+P26012); assay: Cell Adhesion Assay K562-αvβ8 (LAP-b1); conditions: K562-αvβ8 cells, ligand LAP-b1, 2 mM MgCl2; read-out: mean affinity (pIC50) αvβ8 (converted)
T2 construct: expressed in transfected cells; host or cells: K562
T2 sequence (P06756 31-889 limits assumed): as the sequence (P06756 31-889 limits assumed) above
T2 sequence (P06756 891-1048 partner limits assumed): as the sequence (P06756 891-1048 partner limits assumed) above
T2 sequence (P26012 43-769): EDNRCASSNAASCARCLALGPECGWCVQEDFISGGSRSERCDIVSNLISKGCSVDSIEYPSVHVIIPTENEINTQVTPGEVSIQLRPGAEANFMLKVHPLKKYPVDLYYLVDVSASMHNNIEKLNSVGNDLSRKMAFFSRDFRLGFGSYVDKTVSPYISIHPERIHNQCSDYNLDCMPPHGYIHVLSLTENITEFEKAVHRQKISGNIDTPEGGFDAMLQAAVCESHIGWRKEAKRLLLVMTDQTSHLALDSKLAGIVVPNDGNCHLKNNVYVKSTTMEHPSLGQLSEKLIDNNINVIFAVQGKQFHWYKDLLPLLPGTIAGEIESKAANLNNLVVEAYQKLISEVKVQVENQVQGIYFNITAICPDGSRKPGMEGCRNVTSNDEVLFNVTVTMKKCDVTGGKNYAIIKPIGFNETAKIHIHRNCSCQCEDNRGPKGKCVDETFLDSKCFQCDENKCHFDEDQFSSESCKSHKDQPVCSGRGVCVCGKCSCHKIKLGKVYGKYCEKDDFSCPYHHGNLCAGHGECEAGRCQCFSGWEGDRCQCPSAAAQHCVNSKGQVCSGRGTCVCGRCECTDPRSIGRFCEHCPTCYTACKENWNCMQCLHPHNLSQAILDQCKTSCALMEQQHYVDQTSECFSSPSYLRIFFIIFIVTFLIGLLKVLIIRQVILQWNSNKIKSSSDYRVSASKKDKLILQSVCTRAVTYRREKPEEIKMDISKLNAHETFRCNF
Procedure: as §1

[3] = target: T3, αvβ5 (Homo sapiens, UniProt P06756+P18084); assay: Cell Adhesion Assay K562-αvβ5 (Vitronectin); conditions: K562-αvβ5 cells, ligand Vitronectin, 2 mM MgCl2; read-out: mean affinity (pIC50) αvβ5 (converted)
T3 construct: expressed in transfected cells; host or cells: K562
T3 sequence (P06756 31-889 limits assumed): as the sequence (P06756 31-889 limits assumed) above
T3 sequence (P06756 891-1048 partner limits assumed): as the sequence (P06756 891-1048 partner limits assumed) above
T3 sequence (P18084 24-799): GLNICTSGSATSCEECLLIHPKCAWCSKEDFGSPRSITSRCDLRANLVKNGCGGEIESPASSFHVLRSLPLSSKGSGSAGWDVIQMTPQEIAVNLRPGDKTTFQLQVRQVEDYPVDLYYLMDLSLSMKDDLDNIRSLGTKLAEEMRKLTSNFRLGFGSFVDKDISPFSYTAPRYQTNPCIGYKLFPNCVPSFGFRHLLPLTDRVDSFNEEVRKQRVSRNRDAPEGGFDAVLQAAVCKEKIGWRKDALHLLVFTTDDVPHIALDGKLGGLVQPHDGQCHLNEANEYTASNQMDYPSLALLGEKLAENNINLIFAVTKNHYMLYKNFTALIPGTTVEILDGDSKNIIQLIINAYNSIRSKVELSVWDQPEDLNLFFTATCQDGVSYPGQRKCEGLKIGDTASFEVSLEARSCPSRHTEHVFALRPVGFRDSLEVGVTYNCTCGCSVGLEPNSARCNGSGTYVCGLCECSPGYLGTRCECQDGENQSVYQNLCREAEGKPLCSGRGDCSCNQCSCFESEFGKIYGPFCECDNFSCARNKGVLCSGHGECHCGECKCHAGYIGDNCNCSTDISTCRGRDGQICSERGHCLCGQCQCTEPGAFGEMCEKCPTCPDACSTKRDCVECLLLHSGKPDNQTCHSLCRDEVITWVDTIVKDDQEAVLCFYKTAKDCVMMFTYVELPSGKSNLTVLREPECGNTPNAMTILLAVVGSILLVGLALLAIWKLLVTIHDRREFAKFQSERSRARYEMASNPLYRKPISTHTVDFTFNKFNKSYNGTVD
Procedure: as §1

[4] = target: T4, αvβ6 (Homo sapiens, UniProt P06756+P18564); assay: Cell Adhesion Assay K562-αvβ6 (LAP-b1); conditions: K562-αvβ6 cells, ligand LAP-b1, 2 mM MgCl2; read-out: mean affinity (pIC50) αvβ6 (converted)
T4 construct: expressed in transfected cells; host or cells: K562
T4 sequence (P06756 31-889 limits assumed): as the sequence (P06756 31-889 limits assumed) above
T4 sequence (P06756 891-1048 partner limits assumed): as the sequence (P06756 891-1048 partner limits assumed) above
T4 sequence (P18564 22-788): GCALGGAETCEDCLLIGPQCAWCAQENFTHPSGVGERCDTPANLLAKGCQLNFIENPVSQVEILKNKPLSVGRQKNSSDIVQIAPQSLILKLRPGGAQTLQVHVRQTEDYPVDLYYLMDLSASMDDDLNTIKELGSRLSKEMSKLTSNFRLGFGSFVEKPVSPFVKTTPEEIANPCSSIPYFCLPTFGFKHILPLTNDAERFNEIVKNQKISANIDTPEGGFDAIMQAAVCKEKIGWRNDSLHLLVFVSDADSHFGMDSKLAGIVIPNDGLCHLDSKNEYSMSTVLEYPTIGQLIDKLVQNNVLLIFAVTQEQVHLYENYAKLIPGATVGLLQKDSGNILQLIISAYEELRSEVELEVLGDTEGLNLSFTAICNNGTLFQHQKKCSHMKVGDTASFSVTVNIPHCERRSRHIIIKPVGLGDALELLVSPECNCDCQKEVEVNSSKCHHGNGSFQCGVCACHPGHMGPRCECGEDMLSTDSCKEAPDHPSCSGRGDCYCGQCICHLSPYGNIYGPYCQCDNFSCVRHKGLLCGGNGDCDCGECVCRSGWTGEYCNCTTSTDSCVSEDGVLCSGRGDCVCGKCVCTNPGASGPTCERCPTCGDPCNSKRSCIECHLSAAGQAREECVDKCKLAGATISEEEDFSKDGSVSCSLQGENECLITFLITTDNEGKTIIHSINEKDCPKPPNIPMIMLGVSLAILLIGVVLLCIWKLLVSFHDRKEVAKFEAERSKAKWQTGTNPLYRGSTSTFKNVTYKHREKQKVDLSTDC
Procedure: as §1

[5] = target: αvβ1 (Homo sapiens, UniProt P05556+P06756); assay: Cell Adhesion Assay αvβ1; conditions: 2 mM MgCl2, cell line and ligand for αvβ1 not given, read-out: mean affinity (pIC50) αvβ1 (converted)

IC50 [1]	IC50 [2]	IC50 [3]	IC50 [4]	IC50 [5]	Structure (SMILES)
3980 nM	50.1 nM	200 nM	12.6 nM		Cc1cc(C(C)(C)O)nn1-c1cccc(C(CC(=O)O)CN2CC[C@@H](CCc3ccc4c(n3)NCCC4)C2)c1 (single isomer, unassigned) [Example 6]
631 nM	10 nM	158 nM	2.51 nM		Cc1cc(CO)nn1-c1cccc(C(CC(=O)O)CN2CC[C@@H](CCc3ccc4c(n3)NCCC4)C2)c1 (single isomer, unassigned) [Example 10]
631 nM	25.1 nM	50.1 nM	6.31 nM		O=C(O)CC(CN1CC[C@@H](CCc2ccc3c(n2)NCCC3)C1)c1cccc(-n2ccc(C(F)(F)F)n2)c1 (stereo partly drawn) [Example 7, 4-((R)-3-(2-(5,6,7,8-tetrahydro-1,8-naphthyridin-2-yl)ethyl)pyrrolidin-1-yl)-3-(3-(3-(trifluoromethyl)-1H-pyrazol-1-yl)phenyl) butanoic acid]
1260 nM	15.8 nM	158 nM	3.16 nM	63.1 nM	Cc1cc(CF)nn1-c1cccc(C(CC(=O)O)CN2CC[C@@H](CCc3ccc4c(n3)NCCC4)C2)c1 (stereo partly drawn) [Example 11, 3-(3-(3-(fluoromethyl)-5-methyl-1H-pyrazol-1-yl)phenyl)-4-((R)-3-(2-(5,6,7,8-tetrahydro-18-naphthyridin-2-yl)ethyl)pyrrolidin-1-yl)butanoic acid]
